According to ChEMBL document CHEMBL5335861, “Novel ACC Inhibitors for Treating Acne” (ACS Med Chem Lett, 2024):

Target: Acetyl-CoA carboxylase 1 (Homo sapiens, UniProt Q13085)
Assay: Inhibition of full length human recombinant ACC1 expressed in baculovirus infected Sf9 cells incubated for 18 hrs in presence of ATP by envision fluorescence reader analysis

Question: For COc1cc(C(=O)N2CCC3(CC2)CC(=O)c2nc(C(C)(C)C)sc2C3)c2[nH]ccc2c1Cl, which IC50 is on record?
Answer: The IC50 was 1.3 nM.
